The subject of data set [1] is HDAC3 versus HDAC1/2. The conditions noted are these: cited from earlier work.
The test system of data set [2] is FXN mRNA. As to the kind of experiment: qRT-PCR analysis of FXN mRNA expression in FRDA iPSC-derived neurons. It is filed as cell-based, human. The settings on record: 10μM, 24-hour treatment.
Data set [3] concerns voltage-gated Na+ channel. It is filed as cell-based, human.
In data set [4] the test system is FXN mRNA and protein. The settings on record: cited from earlier work; for upregulation of FXN mRNA and protein: patient PBMCs.
Data set [5] has as its system FXN transcription. The settings on record: doses up to 8g per day; cited from earlier work.
Data set [6] in a line: clinical. The conditions noted are these: human, in vivo, po; for half-life: t½ (elimination half-life).
The conditions of data set [7]: human, in vivo, po.
Data set [8] concerns GAA repeat RNA–containing foci.
Data set [9] deals with GAA•TTC repeats.
Data set [10] has as its target human ether-a-go-go related gene (hERG) (Homo sapiens, UniProt Q12809). As to the kind of experiment: Automated patch clamp assay. It counts as cell-based.

“And” between values parts separate entries of the source, which are not always exact repeats. Identical values can stand only once. Like-named read-outs stand apart in the source and are kept apart here.

By AUC(0-inf) is commonly meant the area under the concentration-time curve extrapolated to infinity. For orientation: AUC(0-t) means the area under the concentration-time curve up to a stated or last time point. Usually Cmax stands for the maximum level reached in the sampled fluid or tissue. As usually defined, the Tmax is the time at which the peak concentration occurs. In general, Vd/F refers to the apparent distribution volume after extravascular dosing. Usually half-life stands for the time needed for the level to fall by half in the phase considered. Usually IC50 stands for the concentration that gives 50% inhibition. Higher therefore signals weaker potency in that assay.

human ether-a-go-go related gene (hERG), sequence (Q12809 whole entry): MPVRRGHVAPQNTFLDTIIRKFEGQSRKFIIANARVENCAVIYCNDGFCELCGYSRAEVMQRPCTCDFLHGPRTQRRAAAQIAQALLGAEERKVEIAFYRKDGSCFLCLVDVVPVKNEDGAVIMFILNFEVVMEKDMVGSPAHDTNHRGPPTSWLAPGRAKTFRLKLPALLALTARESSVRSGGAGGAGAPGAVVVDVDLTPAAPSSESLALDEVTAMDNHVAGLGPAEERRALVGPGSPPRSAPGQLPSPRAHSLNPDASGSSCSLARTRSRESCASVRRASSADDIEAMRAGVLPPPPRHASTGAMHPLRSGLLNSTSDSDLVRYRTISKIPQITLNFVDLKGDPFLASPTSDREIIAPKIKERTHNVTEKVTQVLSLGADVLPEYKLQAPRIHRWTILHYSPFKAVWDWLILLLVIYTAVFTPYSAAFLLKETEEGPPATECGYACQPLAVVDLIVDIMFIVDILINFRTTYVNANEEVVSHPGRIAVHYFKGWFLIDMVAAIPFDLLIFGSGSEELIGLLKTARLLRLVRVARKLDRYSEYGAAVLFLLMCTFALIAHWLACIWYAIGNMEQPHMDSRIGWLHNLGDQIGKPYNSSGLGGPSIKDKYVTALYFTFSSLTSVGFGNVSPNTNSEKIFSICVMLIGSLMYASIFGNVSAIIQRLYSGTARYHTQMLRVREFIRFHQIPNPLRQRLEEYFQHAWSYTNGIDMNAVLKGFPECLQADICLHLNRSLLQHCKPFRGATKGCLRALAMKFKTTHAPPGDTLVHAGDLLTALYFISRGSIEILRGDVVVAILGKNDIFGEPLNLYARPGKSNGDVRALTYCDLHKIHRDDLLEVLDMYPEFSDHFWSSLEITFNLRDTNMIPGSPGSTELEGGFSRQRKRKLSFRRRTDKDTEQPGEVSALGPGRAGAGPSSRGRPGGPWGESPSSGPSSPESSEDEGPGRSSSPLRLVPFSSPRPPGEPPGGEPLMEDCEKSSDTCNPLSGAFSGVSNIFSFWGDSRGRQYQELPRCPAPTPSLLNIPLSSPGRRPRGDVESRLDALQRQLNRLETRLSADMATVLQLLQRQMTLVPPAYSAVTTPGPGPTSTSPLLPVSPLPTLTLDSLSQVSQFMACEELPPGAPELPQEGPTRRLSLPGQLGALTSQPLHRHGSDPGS

As to `Nc1cc(F)ccc1NC(=O)/C=C/c1cnn(CC=Cc2ccccc2)c1` [HDACi 966, [E]-N-[2-amino-4-fluorophenyl]-3-[1-cinnamyl-1H-pyrazol-4-yl]acrylamide], the “selectivity for HDAC3 over HDAC1/2” value in data set [1] is ~ 30 fold. Besides, the “FXN gene expression induction compared with HDACi 109” value in data set [2] was “Neither of these latter compounds induced FXN gene expression to the extent observed with HDACi 109”.
Turning to `NC1=N[C@H](O)[C@H]2[C@H]3O[C@]4(O)O[C@@H]([C@@H](O)[C@@]2(N1)[C@@H]4O)[C@]3(O)CO` [tetrodotoxin], in data set [3], the action potential generation result is listed as “reversibly blocked AP generation”.
With `Nc1ccc(-c2ccccc2)cc1NC(=O)CCCCCC(=O)Nc1ccccc1` [N[1]-[4-aminobiphenyl-3-yl]-N[7]-phenylheptanediamide], the FXN upregulation entry in data set [4] (patient lymphocytes) is “inactive”.
With `Nc1ccc(-c2cccs2)cc1NC(=O)CCCCCCNC(=O)c1cccnc1` [HDACi 233, N-[2-amino-5-(2-thienyl)phenyl]-7-nicotinoylamino-heptanamide], the “FXN gene expression induction compared with HDACi 109” value in data set [2] is reported as “Neither of these latter compounds induced FXN gene expression to the extent observed with HDACi 109”.
In the case of `NC(=O)c1cccnc1` [nicotinamide], the “restoring FXN transcription in peripheral lymphocytes from blood of orally dosed patients” value in data set [5] is “effective”.
On to `O=C(CCCCCCC(=O)Nc1ccccc1)NO` [SAHA, suberoylanilide hydroxamic acid], for which the “upregulation of FXN mRNA and protein” value in [4] is recorded as “fail to elicit this effect”.
`Cc1ccc(S(=O)(=O)O)cc1` [toluene sulfonic acid]: the “upregulation of FXN mRNA and protein” value in data set [4] is given as “fail to elicit this effect”.
Turning to `Cc1ccc(C(=O)NCCCCCC(=O)Nc2ccccc2N)cc1` [HDACi 109, N-[6-(2-aminophenylamino) −6-oxohexyl]-4-methylbenzamide], the AUC(0-inf) in data set [6] worked out at 39600 ng·h/mL; in data set [6] (30 mg) it was 7760 ng·h/mL; in [6] (60 mg) it was 9720 ng·h/mL; in data set [6] (120 mg), 22000 ng·h/mL; in [6] (180 mg), 35100 ng·h/mL. In addition, the AUC(0-t) stood at 39300 ng·h/mL in data set [6]; 7700 ng·h/mL in data set [6] (30 mg); 9630 ng·h/mL in data set [6] (60 mg); 21700 ng·h/mL in data set [6] (120 mg); 34900 ng·h/mL in data set [6] (180 mg). In addition, the CL/F in [6] was 1.98 mL/min/kg; in [6] (30 mg), 1.02 mL/min/kg; in data set [6] (60 mg) it was 1.45 mL/min/kg; in data set [6] (120 mg), 1.42 mL/min/kg; in data set [6] (180 mg), 1.65 mL/min/kg; in data set [7] it was 6.39±1.71 (5) l/h. Further, the CL/F in data set [7] (30 mg) is given as 3.91±0.59 (2) l/h; in data set [7] (60 mg) it was 6.43±1.51 (3) l/h; in [7] (120 mg), 5.80±1.46 (5) l/h; in data set [7] (180 mg), 5.24±0.89 (5) l/h. The highest concentration (Cmax) in data set [6] turned out to be 7150 ng/mL; in data set [6] (30 mg) it was 1980 ng/mL; in [6] (60 mg), 2560 ng/mL; in data set [6] (120 mg) it was 6470 ng/mL; in [6] (180 mg) it was 10900 ng/mL. Also, the time of peak concentration (Tmax) in [6] was 0.5 h; in data set [6] (30 mg), 0.67 h; in data set [6] (60 mg), 0.67 h; in [6] (120 mg), 1 h; in data set [6] (180 mg), 0.67 h. For the same compound, the Vd/F in data set [6] was 75.5 L and 1.41 L/kg; in data set [6] (30 mg) it was 45.1 L and 0.69 L/kg; in data set [6] (60 mg), 79 L and 1.04 L/kg; in data set [6] (120 mg) it was 89.7 L and 1.32 L/kg; in [6] (180 mg) it was 52.8 L and 1 L/kg. Moreover, the k el was 2.34e-05 s⁻¹ in data set [6]; 2.49e-05 s⁻¹ in data set [6] (30 mg); 2.37e-05 s⁻¹ in data set [6] (60 mg); 2.05e-05 s⁻¹ in [6] (120 mg); 2.82e-05 s⁻¹ in [6] (180 mg). Further, the half-life is 8.2 h in data set [6] (30 mg); 8.43 h in data set [6] (60 mg); 10.1 h in data set [6] (120 mg); 7.07 h in data set [6] (180 mg); 8.56 h in data set [6]. Moreover, the “Cmax (time of)” value in data set [7] was not above 2 h. In addition, the RNA nuclear foci result in data set [8] is given as “lack of RNA nuclear foci”. Besides, the “GAA•TTC repeat instability” value in [9] is “no effect on repeat instability”.
Turning to `c1ccc2[nH]cnc2c1` [benzimidazole], half-maximal inhibition in data set [10] (IC50) was put at 920 nM.

These data come from paper PMC4361037 (Annals of neurology, 2014).
